Data published in PubChem BioAssay AID588656 (The Scripps Research Institute Molecular Screening Center, 2011).

Columns and labels:
[1] = test system: HT29 cells, ERK1/2 western blot, 24 h; experiment: altered MAPK1 (ERK1/2) protein abundance – HT29 cells, chemiluminescent western blot, powder samples, counter-screen for KLF5 inhibitor project, late-stage follow-up (AID 588656); conditions: measured here: ERK1/2 protein fold change vs DMSO; at 10 µM
[2] = molecular target: Mitogen-activated protein kinase 1 (Homo sapiens) (UniProt P28482); experiment: as above; conditions: HT29 cells, ERK1/2 western blot, 24 h; at 10 µM; stronger effect = higher value
Mitogen-activated protein kinase 1 (Homo sapiens), sequence (P28482 whole entry, looked up): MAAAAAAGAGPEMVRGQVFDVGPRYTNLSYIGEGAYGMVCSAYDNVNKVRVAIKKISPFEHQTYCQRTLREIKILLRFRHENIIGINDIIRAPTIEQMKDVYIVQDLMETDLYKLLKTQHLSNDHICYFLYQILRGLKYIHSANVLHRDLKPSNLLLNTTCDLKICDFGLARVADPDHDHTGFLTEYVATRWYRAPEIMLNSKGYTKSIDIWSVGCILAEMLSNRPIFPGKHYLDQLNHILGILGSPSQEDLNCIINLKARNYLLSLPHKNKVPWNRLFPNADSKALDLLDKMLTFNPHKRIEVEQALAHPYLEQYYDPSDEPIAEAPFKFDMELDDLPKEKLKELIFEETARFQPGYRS

Row | Structure (SMILES) | fold change [1] | inhibition [2] [%]
1 | CN(C(=O)CNC(=O)/C=C/c1cccc(Cl)c1)C1CCS(=O)(=O)C1 (stereo unspecified) | 1.97 | -96.6
2 | CN(C(=O)CNC(=O)/C=C/c1cccc(Cl)c1)C1CCS(=O)(=O)CC1 | 1.97 | -96.5
3 | CN(C(=O)COC(=O)/C=C/c1cccc([N+](=O)[O-])c1)C1CCS(=O)(=O)C1 (stereo unspecified) | 1.46 | -46.4
